From patent US20110110916A1, “METHODS FOR TREATING AND/OR PREVENTING CARDIOMYOPATHIES BY ERK OR JNK INHIBITION” (priority 2008, published 2011)
Like-named read-outs stand apart in the source and are kept apart here.

How the values were obtained:
Lmna^H222P/H222P mice [1] = type: in vivo, mouse; details: Lmna^H222P/H222P mice at 16 weeks of age; i.p. 5 days a week from 8 to 16 weeks (PD98059, SP600125 3 mg/kg/day); means ± standard deviations
Method: PD98059 (Calbiochem) and SP600125 (Calbiochem) were dissolved in Dimethyl Sulfoxide (DMSO, Sigma) at a concentration of 0.5 mg/ml and were delivered to a dose of 3 mg/kg/day for 5 days a week. […] The placebo control consisted of DMSO alone. Placebo and inhibitors were administered by intraperitoneal injection using a 27G^5/8 syringe. Treatment was started when mice were 8 weeks of age and continued until 16 weeks of age.
Lmna H222P knock-in mice were generated and genotyped as described (14). […] Lmna^H222P/H222P mice were separated by sex and were given either vehicle alone (DMSO), the MEK inhibitor PD98059 alone, the JNK inhibitor SP600125 alone, both PD98059 and SP600125 together, the MEK inhibitor U0126 alone, or the MEK inhibitor MEK1/2 alone. All the mice were fed on a chow diet and housed in a barrier facility. The Institutional Animal Care and Use Committee at Columbia University Medical Center approved the use of animals in the study protocol.
Cardiac function was assessed by echocardiography with a Visualsonics Vevo 770 ultrasound with a 30-MHz transducer applied to the chest wall. Cardiac ventricular dimensions and ejection fraction were measured in 2D-mode and M-mode three times for the number of animals indicated. A “blinded” echocardiographer, unaware of the genotype or treatment, performed the examinations.
We administered PD98059, at a dose of 3 mg/kg/day or 6 mg/kg/day, or placebo (dimethylsulfoxide; DMSO) by intraperitoneal injection 5 days a week to male homozygous Lmna mutant mice (Lmna^H222P/H222P). […] PD98059 mediates its inhibitory properties by binding to MEK, therefore preventing phosphorylation of ERK1/2.
(§1) Treatment was initiated at 8 weeks of age and continued until the mice were 16 weeks of age. At 16 weeks of age, the mice were analyzed by echocardiography and then sacrificed for histological and biochemical studies. Untreated male Lmna^+/+ and Lmna^H222P/H222P mice were similarly analyzed for comparisons.

ERK1/2 = experiment: Immunoblot of phosphorylated ERK1/2 versus total ERK1/2 in hearts of treated mice; type: in vivo, mouse; details: 1 mg/kg/day from 16 to 20 weeks of age
Method: Hearts were excised from mice at 16-weeks of age and were homogenized in RIPA extraction buffer (Cell Signalling) containing protease inhibitors (25 […]). Protein samples were subjected to SDS-PAGE, transferred to nitrocellulose membranes and blotted with primary antibodies against ERK1/2 (Santa-Cruz), phosphorylated ERK1/2 (Cell Signaling), JNK (Santa-Cruz), natriuretic peptide precursor A (Santa-Cruz), phosphorylated JNK (Cell Signaling), and Gapdh (Ambion). Secondary antibodies were HRP-conjugated (Amersham). Recognized proteins were visualized by enhanced chemiluminescence (ECL, Amersham). The signal generated using an antibody against Gapdh was used as internal controls to normalize the amounts of protein between immunoblots.
We assessed the efficacy of the chemical entities in inhibiting their targets in the heart by immunoblot using anti-total ERK1/2 (Santa Cruz) and anti-pERK1/2 (Cell Signaling) antibodies.
Proteins were loaded on 10% SDS gels and electrotransferred on a […] pore size nitrocellulose membrane (Invitrogen). We used antibodies directed against phosphorylated ERK1/2 (Cell Signaling, 1:1,000), total ERK1/2 (Santa Cruz, 1:2,000), phosphorylated JNK (Cell Signaling, 1:1,000) and total JNK (Santa Cruz, 1:200). The secondary antibodies were coupled to horseradish-peroxydase (Amersham). Recognized proteins were visualized by enhanced chemiluminescence (SuperSignal® West Pico chemiluminescent substrate, Thermo Scientific).

MEK1/2 = details: Table 10, description of MEK1/2 inhibitors; cited from earlier work
[2] = system: hearts from Lmna^H222P/H222P mice; experiment: Quantification of myocardial fibrotic area (Gomori's trichrome); type: in vivo, mouse; details: 20 weeks of age; 1 mg/kg/day from 16 to 20 weeks; DMSO 20.93%±2.45%
Text: Later-stage cardiomyopathy caused by LMNA mutations is characterized by myocardial fibrosis. […] We quantified the myocardial fibrotic area of each animal by determining the ratio of fibrotic tissue (blue stained with Gomori's trichrome) to the total tissue area in each micrograph (FIG. 8B). Hearts from DMSO-treated Lmna^H222P/H222P mice had 20.93%±2.45% fibrotic tissue per total surface examined (FIG. 8B).
Mice were sacrificed at 20 weeks of age, and freshly removed hearts were fixed in 4% formaldehyde for 48 hours, embedded in paraffin, sectioned at 5 μm and stained with hematoxylin, eosin and Gomori's trichrome and Syrius Red. Representative stained sections were photographed using a Microphot SA (Nikon) light microscope attached to a Spot RT Slide camera (Diagnostic Instruments) with a 10× objective. Images were processed using Adobe Photoshop CS (Adobe Systems).
Later-stage cardiomyopathy caused by LMNA mutations is characterized by myocardial fibrosis (21,22). […] We quantified the myocardial fibrotic area of each animal by determining the ratio of fibrotic tissue (blue stained with Gomori's trichrome) to the total tissue area in each micrograph (FIG. 34C). Hearts from DMSO-treated Lmna^H222P/H222P mice had 15.01±0.9% fibrotic tissue per total surface examined (FIG. 34D).

Lmna^H222P/H222P mice [3] = experiment: Echocardiography at 20 weeks of age, second-generation MEK1/2 inhibitors from 16 to 20 weeks; type: in vivo, mouse; details: 1 mg/kg/day, 5 days a week from 16 to 20 weeks
Method: as §1, with “The compounds were administered at a dose of 1 mg/kg/day, 5 days a week to Lmna^H222P/H222P mice, as previously described. Treatment” for “Treatment”, “16” for “8”, “20” for “16”, “for” for “for histological and”

[4] = system: hearts from Lmna^H222P/H222P mice; experiment: Quantitative real-time RT-PCR of mRNAs in hearts of treated mice; type: in vivo, mouse; details: for expression of Colla1 and Colla2: 20 weeks of age, 1 mg/kg/day from 16 to 20 weeks
Text: Total RNA was extracted using the Rneasy isolation kit (Qiagen) as previously described (96). cDNA was synthesized as previously described (96) using Omniscript Reverse Transcriptase (Qiagen) on total cellular RNA. For each replicate in each experiment, RNA from tissue samples of different animals was used. Primers were designed that correspond to mouse RNA sequences using Primer3 (http://frodo.wi.mit.edu/cgi-biniprimer3/primer3_www.cgi). The real-time RT-PCR reaction contained iQ SYBR green super mix (Bio-Rad), 200 nM of each primer and 0.2 μl of template in a 25 μl reaction volume. Amplification was carried out using appropriate primers and the MyiQ Single-Color Real-Time PCR Detection System (Bio-Rad) with an initial denaturation at 95° C. for 2 min followed by 50 cycles at 95° C. for 30 s and 62° C. for 30 s. Relative levels of mRNA expression were calculated using the CT method (67). Individual expression values were normalized by comparison with Gapdh mRNA.
Real-time reverse transcription-PCR (RT-PCR) was used to quantify tissue RNA levels. Total RNA was extracted from cardiac ventricles of mice using the Rneasy isolation kit (Qiagen) as previously described. cDNA was synthesized using Superscript first strand synthesis system according to the manufacturer's instructions (Invitrogen) on total RNA. For each replicate in each experiment, RNA from tissue samples of different animals was used. Primers were designed correspond to mouse RNA sequences using Primer3 (http://frodo.wi.mit.edu/cgi-bin/primer3/primer3_www.cgi) for Nppa (forward 5′-[…]-3′ [SEQ ID NO: 4], reverse 5′-[…]-3′ [SEQ ID NO: 5]), Nppb (forward 5′-[…]-3′ [SEQ ID NO: 6], reverse 5′-[…]-3′ [SEQ ID NO: 7]), Mlc-2a (forward 5′-[…]-3′ [SEQ ID NO: 8], reverse 5′-[…]-3′ [SEQ ID NO: 9]), Colla1 (forward 5′-[…]-3′ [SEQ ID NO: 10], reverse 5′-[…]-3′ [SEQ ID NO: 11]), Colla2 (forward 5′-[…]-3′ [SEQ ID NO: 12], reverse 5′-[…]-3′ [SEQ ID NO: 13]) and Fn1 (forward 5′-[…]-3′ [SEQ ID NO: 14], reverse 5′-[…]-3′ [SEQ ID NO: 15]). The real-time RT-PCR reaction contained iQ SYBR green super mix (Bio-Rad), 200 nM of each primer, and 0.2 μl of template in a 25 μl reaction volume. Amplification was carried out using the MyiQ Single-Color Real-Time PCR Detection System (Bio-Rad) with an initial denaturation at 95° C. for […] followed by 50 cycles at 95° C. for 30 s and 62° C. for 30 s. Relative levels of mRNA expression were calculated using the ΔΔCT method (2). Individual expression values were normalized by comparison with Gapdh mRNA (forward 5′-[…]-3′ [SEQ ID NO: 16], reverse 5′-[…]-3′ [SEQ ID NO: 17]).

[5] = system: atrial natriuretic factor; experiment: Serum atrial natriuretic factor before and after treatment; type: in vivo, mouse; details: before (16 weeks) and after (20 weeks) treatment; compared to DMSO-treated mice
Text: We measured the expression of atrial-natriuretic factor in the serum Lmna^H222P/H222P mice before (16 weeks) and after (20 weeks) the treatment with the MEK1/2 inhibitors (FIG. 3).

[6] = 1 mg/kg/day from 16 to 20 weeks of age

N#CC(=C(N)Sc1ccccc1N)C(C#N)=C(N)Sc1ccccc1N [U0126, 1,4-diamino-2,3-dicyano-1,4-bis(2-aminophenylthio)butadiene]
EF (Lmna^H222P/H222P mice [1]): 62.83 ± 4.09%
FS (Lmna^H222P/H222P mice [1]): 33.79 ± 3.10%
IVSD (Lmna^H222P/H222P mice [1]): 0.64 ± 0.03 mm
LVEDD (Lmna^H222P/H222P mice [1]): 3.54 ± 0.16 mm
LVESD (Lmna^H222P/H222P mice [1]): 2.47 ± 0.09 mm
LVPW (Lmna^H222P/H222P mice [1]): 0.69 ± 0.11 mm

Cn1cnc2c(F)c(Nc3ccc(Br)cc3Cl)c(C(=O)NOCCO)cc21 [AZD6244]
phosphorylation of ERK1 and ERK2 in hearts (ERK1/2): inhibited partially
IC50 (MEK1/2): 10 nM
area of fibrotic tissue per total surface examined [2]: 11.90%±1.97%
FS (Lmna^H222P/H222P mice [3]): 25.97%±5.05%
LVEDD compared to DMSO-treated mice (Lmna^H222P/H222P mice [3]): significantly smaller
LVESD compared to DMSO-treated mice (Lmna^H222P/H222P mice [3]): significantly smaller
decrease of Mlc-1a and Mlc-2a mRNAs compared to hearts of DMSO-treated mice [4, 6]: approximately 2 fold
expression of Colla1 and Colla2 [4]: significantly lowered
expression of atrial natriuretic factor in serum [5]: significantly decreased

O=C(NOCC(O)CO)c1ccc(F)c(F)c1Nc1ccc(I)cc1F (centres unmarked) [PD0325901]
phosphorylation of ERK1 and ERK2 in hearts (ERK1/2): inhibited partially
area of fibrotic tissue per total surface examined [2]: 15.06%±0.28%
FS (Lmna^H222P/H222P mice [3]): 23.23%±6.33%
cardiac expression of brain natriuretic factor (Nppb) [4, 6]: decreased
decrease of Mlc-1a and Mlc-2a mRNAs compared to hearts of DMSO-treated mice [4, 6]: approximately 2 fold
expression of Colla1 and Colla2 [4]: significantly lowered
expression of atrial natriuretic factor in serum [5]: trend toward diminished expression

O=C(NOCC1CC1)c1ccc(F)c(F)c1Nc1ccc(I)cc1Cl [CI-1040]
phosphorylation of ERK1 and ERK2 in hearts (ERK1/2): inhibited partially
IC50 (MEK1/2): 1 nM
area of fibrotic tissue per total surface examined [2]: 13.10%±0.96%
FS improvement (Lmna^H222P/H222P mice [3]): not improved
LVEDD compared to DMSO-treated mice (Lmna^H222P/H222P mice [3]): significantly smaller
expression of Colla1 and Colla2 [4]: significantly lowered
expression of atrial natriuretic factor in serum [5]: significantly decreased

N#CC(=C(N)Sc1ccc(N)cc1)c1ccccc1C(F)(F)F [MEK1/2, Z-& E-a-(amino-((4-aminophenyl)thio)methylene)-2-(trifluoromethyl)benzeneacetonitrile]
EF (Lmna^H222P/H222P mice [1]): 64.43 ± 0.77%
FS (Lmna^H222P/H222P mice [1]): 34.50 ± 0.36%
IVSD (Lmna^H222P/H222P mice [1]): 0.60 ± 0.00 mm
LVEDD (Lmna^H222P/H222P mice [1]): 3.77 ± 0.32 mm
LVESD (Lmna^H222P/H222P mice [1]): 2.62 ± 0.28 mm
LVPW (Lmna^H222P/H222P mice [1]): 0.69 ± 0.08 mm
